From patent publication US20140255361A1, “ESTROGEN-RECEPTOR BASED LIGAND SYSTEM FOR REGULATING PROTEIN STABILITY” (The Board of Trustees Of The Leland Stanford Junior …, priority 2013, published 2014)
Changes are numbered by the printed parent chain. Read-outs that look alike come from different tables or passages of the source.

Columns and labels:
GFP-ERLID fusion protein = molecular target: T1, GFP-ERLID fusion protein (Homo sapiens, UniProt P03372)
T1 sequence (P03372 with tags, fused parts or gaps): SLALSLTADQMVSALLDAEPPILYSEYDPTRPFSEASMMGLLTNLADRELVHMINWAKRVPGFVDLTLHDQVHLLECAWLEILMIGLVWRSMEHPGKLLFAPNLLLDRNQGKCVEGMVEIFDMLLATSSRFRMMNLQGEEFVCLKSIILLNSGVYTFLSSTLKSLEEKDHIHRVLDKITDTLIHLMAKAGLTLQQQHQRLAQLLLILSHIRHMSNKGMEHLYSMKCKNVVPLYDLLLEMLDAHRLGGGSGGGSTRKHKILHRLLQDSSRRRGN

[1] = molecular target: T2, estrogen receptor ligand binding domain mutants (four and six mutations) (Homo sapiens, UniProt P03372, G521R/L384M/M421G/N519S/T371A/Y537S); assay: Drug-dependent stability of ERLBD mutant clones with YFP or GFP reporter; type: cell-based; conditions: relative to the parent ESR1 sequence
T2 construct: residues 305-549 of estrogen receptor-1, ERS1; YFP or GFP reporter
T2 sequence (P03372 305-549 T371A/L384M/M421G/N519S/G521R/Y537S): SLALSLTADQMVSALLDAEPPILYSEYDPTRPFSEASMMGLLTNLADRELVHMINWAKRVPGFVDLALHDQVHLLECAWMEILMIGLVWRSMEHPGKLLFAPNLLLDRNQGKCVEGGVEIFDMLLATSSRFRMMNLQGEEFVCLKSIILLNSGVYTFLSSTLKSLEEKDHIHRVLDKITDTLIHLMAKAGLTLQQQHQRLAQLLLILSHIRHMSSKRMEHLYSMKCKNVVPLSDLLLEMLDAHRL

wild-type ER LBDs = conditions: cited from earlier work
[2] = molecular target: T3, four point mutant of the estrogen receptor ligand binding domain (L384M, M421G, G521R and Y437S) fused to GFP (Homo sapiens, UniProt P03372, G521R/L384M/M421G/Y537S); conditions: cross-hatched bars, FIG. 7A
T3 sequence (P03372 with tags, fused parts or gaps L384M/M421G/G521R/Y537S): T1 sequence (P03372 with tags, fused parts or gaps) with L80M, M117G, G217R, Y233S

GFP-LID = assay: Stability of GFP-LID fusion protein by flow cytometry (MFI) in NIH3T3 cells; type: cell-based; conditions: 1 μM Shield-1, 24 hours, FIG. 2
Text: (§1) In studies conducted in support of the invention, and with reference to the Materials and Methods set forth in the Examples section below, the stabilities of two LID domain fusion proteins, a first generation construct based on the FKBP protein, here called “GFP-LID” and a next-generation construct having improved characteristics, here called “GFP-LID #15” were compared. […] For this study, NIH3T3 fibroblast cells were infected with retrovirus expressing GFP-LID or GFP-LID #15. Transduced NIH3T3 cells were treated with or without 1 μM Shield-1 for 24 hours. The fluorescence intensities of these GFP fusions were analyzed by flow cytometry. The median fluorescence intensity (MFI) was used to determine the stability of the GFP fusion proteins.
(§2) The INX ecotropic packaging cell line was transfected using standard Lipofectamine 2000 protocols. Viral supernatants were harvested 48 h post-transfection, filtered. NIH3T3 cells were incubated with the retroviral supernatants supplemented with 4 μg/ml polybrene for 4 h at 37° C. Cells were washed once with PBS and cultured in growth media for 48 hrs to allow for viral integration, then assayed as described.
(§3) Twenty-four hours prior to analysis, transduced NIH3T3 cells were plated at 1×10^5 cells per well of a 12-well plate. […] Cells were analyzed at the Stanford Shared FACS Facility using Vantoo or LSRII with 10,000 events represented.

GFP-LID #15 = assay: Stability of GFP-LID #15 fusion protein by flow cytometry (MFI) in NIH3T3 cells; type: cell-based; conditions: 1 μM Shield-1, 24 hours, FIG. 2
Text: as §1, §2, §3

[3] = test system: YFP-FKBP12 LID domain fusion protein; assay: FACS screen of YFP fused to extended FKBP12 (LID domain) in NIH3T3 cells; type: cell-based, mouse
Text: Human […] protein was modified to include a 19-residue peptide extension at the C-terminus of the FKBP12 protein. Genetic diversity was engineered into this C-terminal extension using synthetic oligonucleotides and PCR, and this library of extended FKBP genes was fused to the 3′-end of the YFP gene. A library of plasmids was stably introduced into NIH3T3 cells using retrovirus, and FACS was used to screen the transduced cells for cells expressing YFP in the absence of the small molecule ligand Shield-1. […] This domain is identified herein by SEQ ID NO: 1.

HA-hRPA2-ERLID = HA-hRPA2-ERLID (Homo sapiens, UniProt P03372)
GFP-ERLID = GFP-ERLID (Homo sapiens, UniProt P03372)
HA-Bax-ERLID = HA-Bax-ERLID (Homo sapiens, UniProt P03372)
HA-hUBC13-ERLID = HA-hUBC13-ERLID (Homo sapiens, UniProt P03372)
[4] = SEQ ID NO: 3 fused to GFP, open bars, FIG. 7A

Compound: O=C1CCC2(Cc3ccc(Cl)cc3)Cc3cc(O)ccc3C2=C1c1ccc(OCCN2CCCCC2)cc1 (stereo not shown) [CMP8, 9a-(4-Chlorobenzyl)-7-hydroxy-4-[4-(2-piperidin-1-ylethoxy)phenyl]-1,2,9,9a-tetrahydro-3H-fluoren-3-one]
- stability of wild type GFP-ERLID fusion protein (MFI) (GFP-ERLID fusion protein; [4]): destabilization
- dynamic range of stability in the presence of ligand [1]: large dynamic
- binding to wild-type ER LBDs (wild-type ER LBDs): does not bind well
- stability of mutant fusion protein (MFI) [2]: destabilization

Compound: C[C@]12CC[C@@H]3c4ccc(O)cc4C[C@@H](CCCCCCCCC[S+]([O-])CCCC(F)(F)C(F)(F)F)[C@H]3[C@@H]1CC[C@@H]2O (stereo partly shown) [fulvestrant]
- stability of GFP-ERLID fusion protein (GFP-ERLID fusion protein; 10 μM fulvestrant, NIH3T3 cells, FIG. 4): induced degradation
- stability of wild type GFP-ERLID fusion protein (MFI) (GFP-ERLID fusion protein; [4]): destabilization

Compound: CC[C@H](C(=O)N1CCCC[C@H]1C(=O)O[C@H](CCc1ccc(OC)c(OC)c1)c1cccc(OCCN2CCOCC2)c1)c1cc(OC)c(OC)c(OC)c1 [Shield-1]
- stability of GFP fusion protein (median fluorescence intensity) (GFP-LID): destabilized
- stability of GFP fusion protein (median fluorescence intensity) (GFP-LID #15): destabilized
- YFP levels on addition of ligand [3]: dropped significantly

Compound: 4-hydroxytamoxifen [4-OHT]
- stability of GFP-ERLBD (MFI) as a function of amount of ligand (GFP-ERLID fusion protein): dose dependent destabilization
- stability of GFP-ERLID fusion protein (MFI) (GFP-ERLID fusion protein): induces degradation
- stability of fusion protein (MFI) after E2 washout with 4-hydroxytamoxifen in the wash solution (E2 wo+4OHT) (GFP-ERLID fusion protein): destabilizes
- stability of fusion protein (MFI) after ligand exposure (GFP-ERLID fusion protein): destabilizes
- stability of wild type GFP-ERLID fusion protein (MFI) (GFP-ERLID fusion protein): destabilization
- level of fusion protein by Western blot (HA-hRPA2-ERLID): destabilized
- level of fusion protein by Western blot (GFP-ERLID): destabilized
- level of fusion protein by Western blot (HA-Bax-ERLID): destabilized
- level of fusion protein by Western blot (HA-hUBC13-ERLID): destabilized
- stability of mutant fusion protein (MFI) [2]: destabilization
